{"source": "patent US20250241328A1", "about": "“REDUCTANT TREATMENT METHODS FOR FOOD PRODUCT PRECURSORS” (Impossible Foods Inc., priority 2022, published 2025)", "key": {"bacterial bioburden": {"test_system": "bacterial bioburden", "test": "Bacterial bioburden of heme samples following HTST treatment", "assay_type": "cell-based", "conditions": "15 mM and 35 mM cysteine, heme samples at pH 9.5"}, "[1]": {"test_system": "aerobic plate count (gram negative and gram positive bacteria)", "test": "Refrigerated shelf-life study of HTST-treated soy leghemoglobin, aerobic plate count", "assay_type": "cell-based", "conditions": "HTST-treated soy leghemoglobin (LegH)", "description": "APC captures both gram negative and gram positive bacteria, whereas lactic acid bacteria (LAB) captures gram positive bacteria (FIG. 1B)."}, "E. coli": {"test_system": "E. coli", "test": "Pathogen reduction during HTST in leghemoglobin samples", "assay_type": "cell-based", "description": "(§1) Salmonella and E. coli are gram negative bacteria, and Listeria is gram positive. Addition of cysteine reduced the CFU/g of E. coli even in the absence of heat.\n(§2) FIGS. 2A, 2B, and 2C are tables showing the reduction of pathogens in leghemoglobin samples with and without cysteine."}, "Listeria": {"test_system": "Listeria", "test": "Pathogen reduction during HTST in leghemoglobin samples", "assay_type": "cell-based", "conditions": "cysteine treatment during HTST", "description": "as §1, §2"}, "Salmonella": {"test_system": "Salmonella", "test": "Pathogen reduction during HTST in leghemoglobin samples", "assay_type": "cell-based", "conditions": "cysteine treatment during HTST", "description": "as §1, §2"}, "LegH": {"target": "T1, LegH (Glycine max, UniProt P02236)", "T1 construct": "made in house; host or cells: Pichia", "T1 sequence (P02236 whole entry)": "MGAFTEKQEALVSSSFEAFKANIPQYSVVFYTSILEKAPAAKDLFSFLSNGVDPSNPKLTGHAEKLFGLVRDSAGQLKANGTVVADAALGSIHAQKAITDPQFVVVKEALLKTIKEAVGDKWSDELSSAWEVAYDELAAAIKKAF", "test": "LegH concentration after HTST of LegH Prep by UPLC (thermostability)", "assay_type": "physicochemical, soy", "conditions": "HTST 20 seconds, 68-72° C.", "procedure": "This decrease in concentration is due to LegH aggregating or denaturing in response to heat. […] For UPLC, there is a resolved peak at the LegH retention time that can be tracked by 415 nm absorbance but the integration is performed on the 280 nm peak at that position."}, "[2]": {"test": "Percent suspended solids after HTST of LegH Prep", "assay_type": "physicochemical", "conditions": "HTST 20 seconds, 68-72° C.", "description": "Suspended solid formation is likely due to aggregation or denaturation of the Pichia proteins within LegH Prep in response to heat. […] Increased suspended solids changes the physical properties of the protein solution and are typically associated with increased viscosity."}, "[3]": {"test": "Colorimetric properties (L*c*h) of LegH Prep after HTST", "assay_type": "physicochemical", "conditions": "HTST 20 seconds, 68-72° C.", "procedure": "This color decline is due to LegH denaturation as well as potentially off-color formation produced by Pichia proteins in response to heat. […] FIG. 6 was performed at 15 mM cysteine, a temperature of 65° C., and a duration of 20 seconds. Performing HTST in the presence of cysteine results in less change in both chroma and hue angle show a decrease after HTST compared to performing HTST in the absence of cysteine."}}, "data": [{"smiles": "N[C@@H](CS)C(=O)O", "note": "[cysteine, L-cysteine]", "values": [{"measurement": "bacterial bioburden CFU/g following HTST treatment", "setting": "bacterial bioburden", "result": "decreases bacterial bioburden"}, {"measurement": "aerobic plate count (APC) stability", "setting": "[1]", "result": "cysteine-dependent increase"}, {"measurement": "CFU/g reduction of E. coli", "setting": "E. coli; cysteine treatment during HTST", "result": "significantly increased"}, {"measurement": "CFU/g of E. coli", "setting": "E. coli; in the absence of heat", "result": "reduced"}, {"measurement": "CFU/g reduction of Listeria", "setting": "Listeria", "result": "significantly increased"}, {"measurement": "CFU/g reduction of Salmonella", "setting": "Salmonella", "result": "significantly increased"}, {"measurement": "decrease in LegH concentration after HTST", "setting": "LegH", "result": "diminished in a dose-dependent manner"}, {"measurement": "increase in percent suspended solids (% SS) after HTST", "setting": "[2]", "result": "diminished in a dose-dependent manner"}, {"measurement": "decline in L*c*h after HTST", "setting": "[3]", "result": "diminished in a dose-dependent manner"}]}]}
